{
  "source": "the NIST ThermoML archive (doi:10.1016/j.tca.2010.12.008)",
  "conditions": "Crystal 2; visual observation",
  "note": "Numbers after ± are expanded uncertainties.",
  "data": [
    {"molecule": "CC(C)(C)P(=O)(O)C(C)(C)C", "note": "[di-tert-butylphosphinic acid]", "values": [
      {"measurement": "Triple point temperature", "result": "37.8 ± 0.5", "unit": "K"}
    ]}
  ]
}
